Earlier results as cited in patent US20050266049A1, “Method for the covering of food with polyene antifungal compositions” (D S M IP Assets B.V., priority 2002, published 2005).

Assays:
[1] = test system: most foodborn fungi

Structure (SMILES): C[C@@H]1C/C=C/C=C/C=C/C=C/[C@H](O[C@@H]2O[C@H](C)[C@@H](O)[C@H](N)[C@@H]2O)C[C@@H]2O[C@](O)(C[C@@H](O)C[C@H]3O[C@@H]3/C=C/C(=O)O1)C[C@H](O)[C@H]2C(=O)O [natamycin]
- Minimal Inhibitory Concentration (MIC) [1]: less than 10 ppm
- solubility of natamycin in water: 30-50 ppm
